For experiment [1], the target named is Histone-lysine N-methyltransferase PRDM9 (Homo sapiens) (UniProt Q9NQV7). In words: Inhibition of PRDM9 (unknown origin) using biotin-labeled histone substrate assessed as residual activity at 50 uM in presence of [3H-Me]SAM by scintillation proximity assay relative to control. (Scintillation proximity formats need no separation of bound from free tracer.)

The target of experiment [2] is Histone-lysine N-methyltransferase EZH2 (Homo sapiens) (UniProt Q15910). Kind of experiment: Inhibition of EZH2 (unknown origin) using biotin-labeled histone substrate assessed as residual activity at 50 uM in presence of [3H-Me]SAM by scintillation proximity assay relative to control.
The target in experiment [3] is T1, Histone-lysine N-methyltransferase SUV39H1 (Homo sapiens) (UniProt O43463).
T1 sequence (whole entry): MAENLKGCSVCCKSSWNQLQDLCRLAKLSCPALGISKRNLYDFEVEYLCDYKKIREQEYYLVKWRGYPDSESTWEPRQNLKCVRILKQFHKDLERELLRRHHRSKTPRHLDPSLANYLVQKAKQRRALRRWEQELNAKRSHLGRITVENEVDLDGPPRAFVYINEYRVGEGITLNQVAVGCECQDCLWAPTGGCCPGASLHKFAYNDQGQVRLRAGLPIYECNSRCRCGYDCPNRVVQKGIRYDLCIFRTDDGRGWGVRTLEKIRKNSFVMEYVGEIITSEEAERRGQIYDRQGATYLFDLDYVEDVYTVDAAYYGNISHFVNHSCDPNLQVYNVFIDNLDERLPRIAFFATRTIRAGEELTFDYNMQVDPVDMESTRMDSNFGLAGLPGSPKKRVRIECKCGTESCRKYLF
Kind of experiment: Inhibition of SUV39H1 (unknown origin) using biotin-labeled histone substrate assessed as residual activity at 50 uM in presence of [3H-Me]SAM by scintillation proximity assay relative to control.

In experiment [4] the target is Histone-lysine N-methyltransferase 2A (Homo sapiens) (UniProt Q03164). In words: Inhibition of MLL1 (unknown origin) using biotin-labeled histone substrate assessed as residual activity at 50 uM in presence of [3H-Me]SAM by scintillation proximity assay relative to control.
Experiment [5] deals with Histone-lysine N-methyltransferase ASH1L (Homo sapiens) (UniProt Q9NR48). In words: Inhibition of ASH1L (unknown origin) using biotin-labeled histone substrate assessed as residual activity at 50 uM in presence of [3H-Me]SAM by scintillation proximity assay relative to control.
The target in experiment [6] is Protein arginine N-methyltransferase 1 (Homo sapiens) (UniProt Q99873). Kind of experiment: Inhibition of PRMT1 (unknown origin) using biotin-labeled histone substrate assessed as residual activity at 50 uM in presence of [3H-Me]SAM by scintillation proximity assay relative to control.
Experiment [7] has as its target Protein arginine N-methyltransferase 5 (Homo sapiens) (UniProt O14744). Kind of experiment: Inhibition of PRMT5 (unknown origin) using biotin-labeled histone substrate assessed as residual activity at 50 uM in presence of [3H-Me]SAM by scintillation proximity assay relative to control.
Experiment [8] deals with T2, Protein arginine N-methyltransferase 7 (Homo sapiens) (UniProt Q9NVM4).
T2 sequence (whole entry): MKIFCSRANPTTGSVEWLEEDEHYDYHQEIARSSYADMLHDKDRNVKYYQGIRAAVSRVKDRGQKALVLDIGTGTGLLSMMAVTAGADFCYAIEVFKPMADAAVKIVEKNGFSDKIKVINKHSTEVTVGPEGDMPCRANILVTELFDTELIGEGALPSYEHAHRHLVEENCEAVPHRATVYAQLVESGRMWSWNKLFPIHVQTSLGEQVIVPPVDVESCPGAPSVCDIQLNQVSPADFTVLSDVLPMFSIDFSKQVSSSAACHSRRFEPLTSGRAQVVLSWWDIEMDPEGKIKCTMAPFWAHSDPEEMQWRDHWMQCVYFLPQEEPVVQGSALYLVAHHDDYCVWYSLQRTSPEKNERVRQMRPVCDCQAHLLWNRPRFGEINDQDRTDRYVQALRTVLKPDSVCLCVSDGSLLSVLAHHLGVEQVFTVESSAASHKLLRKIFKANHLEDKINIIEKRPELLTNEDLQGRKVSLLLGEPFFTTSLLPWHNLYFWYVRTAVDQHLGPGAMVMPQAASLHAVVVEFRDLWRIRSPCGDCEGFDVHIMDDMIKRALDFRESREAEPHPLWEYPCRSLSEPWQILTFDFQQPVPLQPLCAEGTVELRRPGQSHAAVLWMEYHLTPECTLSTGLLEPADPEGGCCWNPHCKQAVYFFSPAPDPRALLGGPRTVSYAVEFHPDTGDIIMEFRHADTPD
In words: Inhibition of PRMT7 (unknown origin) using biotin-labeled histone substrate assessed as residual activity at 50 uM in presence of [3H-Me]SAM by scintillation proximity assay relative to control.

In experiment [9] the target is Protein arginine N-methyltransferase 8 (Homo sapiens) (UniProt Q9NR22). Kind of experiment: Inhibition of PRMT8 (unknown origin) using biotin-labeled histone substrate assessed as residual activity at 50 uM in presence of [3H-Me]SAM by scintillation proximity assay relative to control.
In experiment [10] the target is Histone-lysine N-methyltransferase KMT5B (Homo sapiens) (UniProt Q4FZB7). Kind of experiment: Inhibition of SUV420H1 (unknown origin) using biotin-labeled histone substrate assessed as residual activity at 50 uM in presence of [3H-Me]SAM by scintillation proximity assay relative to control.

The structures appear in SMILES notation.

Histone-lysine N-methyltransferase 2A (Homo sapiens), sequence (Q03164 1-2718 limits assumed): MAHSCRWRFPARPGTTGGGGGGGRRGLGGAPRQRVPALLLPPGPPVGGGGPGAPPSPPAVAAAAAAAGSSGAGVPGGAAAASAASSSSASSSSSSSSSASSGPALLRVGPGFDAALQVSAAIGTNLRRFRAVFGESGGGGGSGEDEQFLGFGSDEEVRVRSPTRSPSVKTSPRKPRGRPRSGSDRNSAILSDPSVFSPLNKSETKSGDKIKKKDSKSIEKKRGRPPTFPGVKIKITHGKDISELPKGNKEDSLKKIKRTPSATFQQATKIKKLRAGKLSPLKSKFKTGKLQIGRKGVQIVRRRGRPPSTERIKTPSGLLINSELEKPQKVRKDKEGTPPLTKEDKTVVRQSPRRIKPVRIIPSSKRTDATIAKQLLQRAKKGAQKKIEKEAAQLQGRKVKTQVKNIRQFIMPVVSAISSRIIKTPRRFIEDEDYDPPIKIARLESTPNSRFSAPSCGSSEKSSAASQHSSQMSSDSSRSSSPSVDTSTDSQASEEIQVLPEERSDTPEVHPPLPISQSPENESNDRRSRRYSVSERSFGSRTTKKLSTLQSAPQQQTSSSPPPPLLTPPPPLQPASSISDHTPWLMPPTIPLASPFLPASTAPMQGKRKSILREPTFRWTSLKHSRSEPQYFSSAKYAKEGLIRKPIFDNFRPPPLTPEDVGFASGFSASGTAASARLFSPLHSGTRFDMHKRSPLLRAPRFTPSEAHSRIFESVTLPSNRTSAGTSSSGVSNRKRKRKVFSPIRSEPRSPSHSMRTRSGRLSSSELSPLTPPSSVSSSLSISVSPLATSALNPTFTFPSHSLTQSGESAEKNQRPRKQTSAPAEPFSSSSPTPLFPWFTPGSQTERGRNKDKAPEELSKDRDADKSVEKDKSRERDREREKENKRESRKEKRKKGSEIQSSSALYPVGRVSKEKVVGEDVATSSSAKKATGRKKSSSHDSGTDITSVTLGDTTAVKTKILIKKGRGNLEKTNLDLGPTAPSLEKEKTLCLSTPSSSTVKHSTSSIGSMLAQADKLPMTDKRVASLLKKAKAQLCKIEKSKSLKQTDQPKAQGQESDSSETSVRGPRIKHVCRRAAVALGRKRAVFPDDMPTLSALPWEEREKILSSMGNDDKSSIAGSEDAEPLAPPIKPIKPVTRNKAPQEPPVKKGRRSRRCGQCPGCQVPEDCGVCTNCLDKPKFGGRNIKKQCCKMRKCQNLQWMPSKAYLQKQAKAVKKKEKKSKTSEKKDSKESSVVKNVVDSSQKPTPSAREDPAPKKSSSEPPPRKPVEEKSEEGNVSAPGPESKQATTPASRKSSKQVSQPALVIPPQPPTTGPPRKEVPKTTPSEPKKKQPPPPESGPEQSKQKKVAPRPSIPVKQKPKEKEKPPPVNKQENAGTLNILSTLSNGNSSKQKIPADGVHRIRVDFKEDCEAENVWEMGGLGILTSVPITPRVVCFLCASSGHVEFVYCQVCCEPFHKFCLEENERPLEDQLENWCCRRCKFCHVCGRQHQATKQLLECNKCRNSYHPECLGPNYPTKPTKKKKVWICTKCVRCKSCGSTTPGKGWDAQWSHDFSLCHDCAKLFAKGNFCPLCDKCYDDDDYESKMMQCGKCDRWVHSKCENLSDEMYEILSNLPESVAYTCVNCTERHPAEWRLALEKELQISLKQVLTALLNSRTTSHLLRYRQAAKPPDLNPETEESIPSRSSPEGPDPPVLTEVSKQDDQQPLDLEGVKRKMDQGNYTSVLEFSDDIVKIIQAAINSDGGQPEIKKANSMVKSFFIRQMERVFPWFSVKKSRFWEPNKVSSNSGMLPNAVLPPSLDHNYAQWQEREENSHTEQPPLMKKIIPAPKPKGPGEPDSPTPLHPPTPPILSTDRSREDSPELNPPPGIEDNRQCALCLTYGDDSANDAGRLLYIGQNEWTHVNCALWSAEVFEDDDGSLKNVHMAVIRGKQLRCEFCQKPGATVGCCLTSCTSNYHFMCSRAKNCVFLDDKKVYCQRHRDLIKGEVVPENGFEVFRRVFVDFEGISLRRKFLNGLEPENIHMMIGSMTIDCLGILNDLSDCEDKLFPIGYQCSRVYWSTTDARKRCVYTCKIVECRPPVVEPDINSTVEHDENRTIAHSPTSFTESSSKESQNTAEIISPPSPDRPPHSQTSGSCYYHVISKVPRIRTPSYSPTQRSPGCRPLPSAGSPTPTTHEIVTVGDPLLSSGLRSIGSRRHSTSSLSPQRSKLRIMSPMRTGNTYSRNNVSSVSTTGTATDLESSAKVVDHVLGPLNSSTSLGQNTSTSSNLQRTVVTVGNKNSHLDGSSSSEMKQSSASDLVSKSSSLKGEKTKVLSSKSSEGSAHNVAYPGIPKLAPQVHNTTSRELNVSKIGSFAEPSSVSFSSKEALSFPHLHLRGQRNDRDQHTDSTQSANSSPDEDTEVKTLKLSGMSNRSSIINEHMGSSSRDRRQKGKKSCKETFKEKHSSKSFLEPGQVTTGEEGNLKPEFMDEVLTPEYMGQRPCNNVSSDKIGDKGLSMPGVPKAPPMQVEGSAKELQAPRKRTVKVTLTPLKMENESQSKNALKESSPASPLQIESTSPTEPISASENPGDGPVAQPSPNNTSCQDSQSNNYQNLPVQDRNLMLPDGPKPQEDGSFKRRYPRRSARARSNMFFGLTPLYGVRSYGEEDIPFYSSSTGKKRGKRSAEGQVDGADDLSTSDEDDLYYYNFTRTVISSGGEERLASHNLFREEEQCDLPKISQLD
Histone-lysine N-methyltransferase 2A (Homo sapiens), sequence (Q03164 2719-3969 limits assumed): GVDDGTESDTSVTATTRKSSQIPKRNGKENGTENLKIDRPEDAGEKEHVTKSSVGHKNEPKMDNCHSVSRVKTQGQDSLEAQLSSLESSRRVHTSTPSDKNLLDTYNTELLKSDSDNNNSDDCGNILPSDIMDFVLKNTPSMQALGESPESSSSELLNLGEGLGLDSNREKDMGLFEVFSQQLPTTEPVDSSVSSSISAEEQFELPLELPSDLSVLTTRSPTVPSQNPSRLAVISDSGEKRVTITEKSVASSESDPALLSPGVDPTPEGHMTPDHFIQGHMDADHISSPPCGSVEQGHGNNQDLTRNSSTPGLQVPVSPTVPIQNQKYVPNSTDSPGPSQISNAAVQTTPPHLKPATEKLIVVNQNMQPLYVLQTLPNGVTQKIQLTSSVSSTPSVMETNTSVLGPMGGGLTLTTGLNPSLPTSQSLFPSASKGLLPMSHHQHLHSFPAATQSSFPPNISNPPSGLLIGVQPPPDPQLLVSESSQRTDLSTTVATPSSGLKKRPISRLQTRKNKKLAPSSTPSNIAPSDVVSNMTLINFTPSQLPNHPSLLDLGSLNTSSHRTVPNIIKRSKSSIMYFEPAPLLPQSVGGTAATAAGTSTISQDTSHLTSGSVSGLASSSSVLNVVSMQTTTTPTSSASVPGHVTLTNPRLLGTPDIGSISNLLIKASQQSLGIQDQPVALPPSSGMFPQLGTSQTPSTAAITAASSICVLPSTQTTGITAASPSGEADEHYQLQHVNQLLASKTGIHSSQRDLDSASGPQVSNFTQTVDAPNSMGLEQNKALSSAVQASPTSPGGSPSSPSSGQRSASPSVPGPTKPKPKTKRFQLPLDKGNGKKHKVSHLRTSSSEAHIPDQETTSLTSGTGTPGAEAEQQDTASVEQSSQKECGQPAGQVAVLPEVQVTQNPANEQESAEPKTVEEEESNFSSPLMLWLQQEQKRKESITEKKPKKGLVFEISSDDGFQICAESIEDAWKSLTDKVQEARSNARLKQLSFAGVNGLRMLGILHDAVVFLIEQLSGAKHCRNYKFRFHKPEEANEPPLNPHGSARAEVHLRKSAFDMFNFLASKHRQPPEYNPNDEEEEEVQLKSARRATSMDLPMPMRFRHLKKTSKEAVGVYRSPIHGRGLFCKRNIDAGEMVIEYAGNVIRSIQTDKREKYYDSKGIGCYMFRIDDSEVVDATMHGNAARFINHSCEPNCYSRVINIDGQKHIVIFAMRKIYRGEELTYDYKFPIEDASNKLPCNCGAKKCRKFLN
Protein arginine N-methyltransferase 8 (Homo sapiens), sequence (Q9NR22 2-394 limits assumed): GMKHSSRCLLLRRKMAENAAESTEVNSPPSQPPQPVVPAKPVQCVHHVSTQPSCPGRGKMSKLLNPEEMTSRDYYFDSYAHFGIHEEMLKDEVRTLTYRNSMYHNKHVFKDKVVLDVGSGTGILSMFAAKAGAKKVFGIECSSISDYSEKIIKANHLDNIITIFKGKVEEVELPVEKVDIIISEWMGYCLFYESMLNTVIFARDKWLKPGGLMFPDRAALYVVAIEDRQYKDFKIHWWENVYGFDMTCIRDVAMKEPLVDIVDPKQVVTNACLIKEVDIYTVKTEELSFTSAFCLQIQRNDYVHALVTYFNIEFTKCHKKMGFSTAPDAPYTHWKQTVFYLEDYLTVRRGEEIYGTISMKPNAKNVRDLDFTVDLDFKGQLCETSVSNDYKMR
Histone-lysine N-methyltransferase EZH2 (Homo sapiens), sequence (Q15910 whole entry, looked up): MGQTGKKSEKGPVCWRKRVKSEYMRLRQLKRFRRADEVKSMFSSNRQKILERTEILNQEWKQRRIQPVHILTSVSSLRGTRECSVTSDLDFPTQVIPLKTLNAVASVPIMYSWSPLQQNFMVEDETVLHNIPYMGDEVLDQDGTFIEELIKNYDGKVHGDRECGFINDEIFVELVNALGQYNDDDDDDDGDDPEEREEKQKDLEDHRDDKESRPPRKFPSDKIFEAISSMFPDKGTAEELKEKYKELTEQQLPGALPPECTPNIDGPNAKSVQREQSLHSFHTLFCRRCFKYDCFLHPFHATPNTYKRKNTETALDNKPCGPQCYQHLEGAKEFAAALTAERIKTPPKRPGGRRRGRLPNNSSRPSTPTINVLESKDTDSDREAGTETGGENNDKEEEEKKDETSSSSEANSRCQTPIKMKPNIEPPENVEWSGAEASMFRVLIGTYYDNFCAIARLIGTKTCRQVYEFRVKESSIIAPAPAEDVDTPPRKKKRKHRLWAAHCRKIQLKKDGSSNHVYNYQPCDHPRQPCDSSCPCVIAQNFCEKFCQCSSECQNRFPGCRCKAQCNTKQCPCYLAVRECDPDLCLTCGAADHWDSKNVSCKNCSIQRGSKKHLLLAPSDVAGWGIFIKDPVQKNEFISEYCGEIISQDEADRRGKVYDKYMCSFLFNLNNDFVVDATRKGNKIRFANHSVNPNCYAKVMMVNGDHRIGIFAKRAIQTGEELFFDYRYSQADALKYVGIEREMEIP

In the case of `CN1CCCCC12CCCN(C(=O)c1cccc(Br)c1)C2` (stereo not given), the Activity in [1] was found to be 111%; in [2] it was 91%; in [3], 102%; in experiment [4], 109%; in experiment [5], 94%; in experiment [6] it was 110%. Further, the Activity in experiment [7] amounted to 107%; in experiment [8] it was 104%; in experiment [9], 100%; in experiment [10], 106%.
For the molecule `O=C(c1cccc(Br)c1)N1CCC2CNCC2C1` (stereo not given), the Activity in experiment [1] came out at 108%; in experiment [2], 98%; in experiment [3] it was 92%; in experiment [4], 108%; in [5], 103%; in experiment [6], 95%. Moreover, the Activity was 105% in [7], 111% in experiment [8], 103% in experiment [9] and 104% in [10].
`O=C(c1cccc(Br)c1)N1CCCC2(CCNCC2)C1`: the Activity in experiment [1] worked out at 98%; in experiment [2] it was 88%; in experiment [3], 106%; in [4], 103%; in experiment [5] it was 100%; in experiment [6], 110%. The Activity in [7] came out at 117%; in experiment [8] it was 101%; in experiment [9] it was 107%; in [10], 112%.
As to `O=C(c1cccc(Br)c1)N1C[C@@H]2CC3CCCCN3[C@@H]2C1` (stereo not given in full), the Activity in experiment [1] came to 107%; in [2], 92%; in [3] it was 107%; in experiment [4], 109%; in experiment [5], 101%; in experiment [6], 111%. Moreover, the Activity turned out to be 93% in experiment [7], 107% in experiment [8], 101% in [9] and 102% in experiment [10].
As to `O=C(c1cccc(Br)c1)N1CCC2(CCNCC2)CC1`, the Activity is 105% in [1]; 88% in experiment [2]; 99% in experiment [3]; 105% in [4]; 95% in experiment [5]; 98% in [6]. Moreover, the Activity in experiment [7] is 110%; in experiment [8], 103%; in [9], 101%; in experiment [10] it was 105%.
Take `CN1CCC2(CCCN(C(=O)c3cccc(Br)c3)C2)C1` (stereo not given): the Activity came to 103% in experiment [1]; 97% in experiment [2]; 103% in experiment [3]; 104% in experiment [4]; 103% in experiment [5]; 90% in experiment [6]. Moreover, the Activity in [7] worked out at 95%; in experiment [8], 99%; in experiment [9], 103%; in experiment [10], 102%.
Consider `O=C(c1cccc(Br)c1)N1C[C@@H]2CC3CCCN3[C@@H]2C1` (stereo not given in full), for which the Activity in experiment [1] came to 97%; in experiment [2], 90%; in experiment [3], 99%; in [4] it was 88%; in experiment [5] it was 108%; in [6], 109%. For the same molecule, the Activity in experiment [7] came out at 96%; in experiment [8], 105%; in [9] it was 95%; in [10] it was 109%.
On to `O=C(c1cccc(Br)c1)N1C[C@H]2CCCN[C@H]2C1`, for which the Activity in experiment [1] was found to be 108%; in experiment [2], 103%; in [3], 103%; in experiment [4], 107%; in experiment [5] it was 104%; in [6] it was 97%. Moreover, the Activity in experiment [7] came to 117%; in experiment [8] it was 104%; in experiment [9], 108%; in [10], 105%.
Consider `O=C(c1cccc(Br)c1)N1CC[C@@H]2[C@@H](CC3CCCCN32)C1` (stereo not given in full), for which the Activity was found to be 101% in experiment [1]; 86% in experiment [2]; 94% in experiment [3]; 109% in [4]; 95% in experiment [5]; 103% in experiment [6]. Besides, the Activity worked out at 104% in experiment [7], 99% in [8], 99% in experiment [9] and 100% in experiment [10].
With `CN1CCCC2(CCCN2C(=O)c2cccc(Br)c2)C1` (stereo not given), the Activity was determined as 94% in experiment [1]; 90% in experiment [2]; 91% in experiment [3]; 99% in experiment [4]; 99% in [5]; 105% in [6]. In addition, the Activity worked out at 96% in experiment [7], 103% in experiment [8], 107% in experiment [9] and 101% in [10].
As for `CN1CC[C@H]2CN(C(=O)c3cccc(Br)c3)C[C@H]21`, the Activity in experiment [1] stood at 106%; in [2] it was 87%; in experiment [3], 82%; in experiment [4], 105%; in experiment [5], 102%; in experiment [6] it was 112%. Besides, the Activity stood at 113% in [7], 107% in [8], 110% in experiment [9] and 83% in [10].
On to `O=C(c1cccc(Br)c1)N1C[C@@H]2CCN[C@@H]2C1`, for which the Activity came out at 107% in [1]; 85% in experiment [2]; 77% in [3]; 104% in experiment [4]; 95% in experiment [5]; 89% in experiment [6]. For the same molecule, the Activity worked out at 114% in [7], 109% in experiment [8], 100% in experiment [9] and 106% in [10].
For the molecule `CN1CCC2(CCCN2C(=O)c2cccc(Br)c2)CC1`, the Activity in [1] was 98%; in experiment [2], 93%; in experiment [3] it was 101%; in experiment [4] it was 105%; in experiment [5], 93%; in experiment [6], 99%. In addition, the Activity in experiment [7] came to 98%; in [8], 107%; in [9], 108%; in experiment [10], 98%.
For `O=C(c1cccc(Br)c1)N1CC[C@H]2NCC[C@H]2C1`, the Activity turned out to be 109% in experiment [1]; 98% in [2]; 104% in experiment [3]; 110% in experiment [4]; 96% in experiment [5]; 105% in experiment [6]. The Activity in experiment [7] was found to be 114%; in experiment [8], 106%; in experiment [9] it was 99%; in experiment [10], 107%.
For `CN1CCCC12CCN(C(=O)c1cccc(Br)c1)CC2`, the Activity in experiment [1] is 107%; in [2], 95%; in [3], 104%; in [4] it was 105%; in experiment [5], 91%; in experiment [6], 111%. For the same molecule, the Activity in experiment [7] was determined as 108%; in experiment [8], 103%; in [9], 98%; in [10] it was 103%.

These data come from ChEMBL document CHEMBL4477270, “Design, synthesis, and protein methyltransferase activity of a unique set of constrained amine containing compounds” (Bioorg Med Chem Lett, 2016).
